# Experimental data taken from US8796313B2, “Substituted dihydroisoindolones as allosteric modulators of glucokinase” (Janssen Pharmaceutica N.V., priority 2005, dated 2014).
# Target: T1, human pancreas Glucokinase (GK) (Homo sapiens, UniProt P35557)
# T1 construct: His6; made in house; host or cells: Escherichia coli
# T1 sequence (P35557 1-465): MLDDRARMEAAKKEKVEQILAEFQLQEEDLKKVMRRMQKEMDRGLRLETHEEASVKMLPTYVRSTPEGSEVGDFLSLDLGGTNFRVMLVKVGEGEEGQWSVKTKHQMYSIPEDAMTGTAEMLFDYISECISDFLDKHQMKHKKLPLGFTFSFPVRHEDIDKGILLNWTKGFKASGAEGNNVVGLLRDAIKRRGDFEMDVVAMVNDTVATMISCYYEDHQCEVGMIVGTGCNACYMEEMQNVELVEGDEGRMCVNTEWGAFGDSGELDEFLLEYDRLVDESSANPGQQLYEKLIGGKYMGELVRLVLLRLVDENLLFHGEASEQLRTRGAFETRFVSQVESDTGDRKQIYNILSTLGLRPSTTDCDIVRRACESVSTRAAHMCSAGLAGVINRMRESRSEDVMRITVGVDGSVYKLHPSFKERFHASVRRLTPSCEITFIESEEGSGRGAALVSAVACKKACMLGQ
# Assay: Glucokinase enzyme assay, pancreas GK
# Assay type: biochemical
# Settings: for EC50: concentration that produces 50% activation above vehicle control; for EC100%: concentration that produces 100% activation above vehicle control; for activation at 50 µM: increase in GK activity above vehicle control, compound 50 μM, 12 mM glucose
# Excerpt: An enzymatic Glucokinase (GK) assay using purified recombinant human liver/pancreas enzyme was used to evaluate the effects of potential small molecule modulators.
# In this assay, GK catalyzes glucose phosphorylation in the presence of ATP. The product of this reaction, glucose-6-phosphate, was then oxidized by an excess of glucose-6-phosphate dehydrogenase to produce gluconate-6-phosphate with concomitant reduction of nicotinamide adenine dinucleotide (NAD). […] Human GK (Liver/Pancreas) was expressed in Escherichia coli as a (His) 6-tagged fusion protein and was purified by metal chelate affinity chromatography. The assay was performed in a final incubation volume of 80 μl in a 96-well clear low UV absorption plates. The incubation mixture consisted of 25 mM HEPES, 2 mM MgSO4, 1 mM dithiothreotol (DTT), 1 mg/mL bovine serum albumin (BSA), 1 mM ATP, 1 mM NAD, and 12 mM glucose, 10 units per mL glucose-6-phosphate dehydrogenase, and +/−300 ng per mL GK. For determination of the affinity (Km) and Vmax, different concentrations of glucose ranging from 0.5 mM to 40 mM were used in the assay; see Grimsby, J., Sarabu, R.; Grippo, J. F.; et. al. Science 2003, 301, 370-373. […] EC50% (μM) was calculated as the effective concentration of the compound that produces 50% activation above the vehicle control, and EC100% (μM) was calculated as the effective concentration of the compound that produces 100% activation above the vehicle control.
EC50 [nM],EC100% [µM],activation at 50 µM [%],% Activation @ 5 μM (cell states @ 5 μM instead of the head's 50 μM),Structure (SMILES)
173,0.615,309,,"O=C(CCC1c2cccc(Cl)c2C(=O)N1Cc1ccc(F)cc1)Nc1ccc(Br)cn1 (centres unmarked) [Compound 38, N-(5-Bromo-pyridin-2-yl)-3-[4-chloro-2-(4-fluoro-benzyl)-3-oxo-2,3-dihydro-1H-isoindol-1-yl]-propionamide]"
25,0.46,173,,"COC(=O)c1ccc(NC(=O)CCC2c3c(F)cccc3C(=O)N2Cc2ccc(F)cc2)nc1 (centres unmarked) [Compound 26, 6-{3-[7-Fluoro-2-(4-fluoro-benzyl)-3-oxo-2,3-dihydro-1H-isoindol-1-yl]-propionylamino}-nicotinic acid methyl ester]"
,,30.6,,"CCOC(=O)c1ccnc(NC(=O)CCC2c3c(F)cccc3C(=O)N2Cc2ccc(F)cc2)c1 (centres unmarked) [Compound 23, 2-{3-[7-Fluoro-2-(4-fluoro-benzyl)-3-oxo-2,3-dihydro-1H-isoindol-1-yl]-propionylamino}-isonicotinic acid ethyl ester]"
420,15,114,,"N#Cc1ccc(NC(=O)CCC2c3c(F)cccc3C(=O)N2Cc2ccc(F)cc2)nc1 (centres unmarked) [Compound 47, N-(5-Cyano-pyridin-2-yl)-3-[7-fluoro-2-(4-fluoro-benzyl)-3-oxo-2,3-dihydro-1H-isoindol-1-yl]-propionamide]"
54,0.48,191,,"Cc1ccc(NC(=O)CCC2c3c(F)cccc3C(=O)N2Cc2ccc(F)cc2)nc1 (centres unmarked) [Compound 41, 3-[7-Fluoro-2-(4-fluoro-benzyl)-3-oxo-2,3-dihydro-1H-isoindol-1-yl]-N-(5-methyl-pyridin-2-yl)-propionamide]"
54,0.225,259,,"CC(=O)c1ccc(NC(=O)CCC2c3c(F)cccc3C(=O)N2Cc2ccc(F)cc2)nc1 (centres unmarked) [Compound 37, N-(5-Acetyl-pyridin-2-yl)-3-[7-fluoro-2-(4-fluoro-benzyl)-3-oxo-2,3-dihydro-1H-isoindol-1-yl]-propionamide]"
,,13.8,,"O=C(Nc1ccccn1)OCCC1c2c(F)cccc2C(=O)N1Cc1ccc(F)cc1 (centres unmarked) [Compound 16, Pyridin-2-yl-carbamic acid 2-[7-fluoro-2-(4-fluoro-benzyl)-3-oxo-2,3-dihydro-1H-isoindol-1-yl]-ethyl ester]"
40000,,65,,"O=C(CCC1c2c(F)cccc2C(=O)N1Cc1ccc(F)cc1)Nc1ncc(Br)s1 (centres unmarked) [Compound 27, N-(5-Bromo-thiazol-2-yl)-3-[7-fluoro-2-(4-fluoro-benzyl)-3-oxo-2,3-dihydro-1H-isoindol-1-yl]-propionamide]"
,,4.39,,"COc1ccc(CN2C(=O)c3ccccc3C2CNC(=O)Nc2ccccn2)cc1 (centres unmarked) [Compound 24, 1-[2-(4-Methoxy-benzyl)-3-oxo-2,3-dihydro-1H-isoindol-1-ylmethyl]-3-pyridin-2-yl-urea]"
8.9,0.082,223,,"COC(=O)c1ccc(NC(=O)CC[C@H]2c3c(F)cccc3C(=O)N2Cc2ccc(F)cc2)nc1 [Compound 51, (S)-6-{3-[7-Fluoro-2-(4-fluoro-benzyl)-3-oxo-2,3-dihydro-1H-isoindol-1-yl]-propionylamino}-nicotinic acid methyl ester]"
3200,11,167,,"COc1ccc(CN2C(=O)c3ccccc3C2CCC(=O)Nc2ccc(C(=O)O)cn2)cc1 (centres unmarked) [Compound 8, 6-{3-[2-(4-Methoxy-benzyl)-3-oxo-2,3-dihydro-1H-isoindol-1-yl]-propionylamino}-nicotinic acid]"
17000,,62.8,,"CS(=O)(=O)c1ccc(NC(=O)CCC2c3c(F)cccc3C(=O)N2Cc2ccc(F)cc2)nc1 (centres unmarked) [Compound 48, 3-[7-Fluoro-2-(4-fluoro-benzyl)-3-oxo-2,3-dihydro-1H-isoindol-1-yl]-N-(5-methanesulfonyl-pyridin-2-yl)-propionamide]"
488,4.5,177,,"O=C(CCC1c2c(F)cccc2C(=O)N1Cc1ccc(F)cc1)Nc1ccc(-c2ccc(F)cc2)cn1 (centres unmarked) [Compound 33, 3-[7-Fluoro-2-(4-fluoro-benzyl)-3-oxo-2,3-dihydro-1H-isoindol-1-yl]-N-[5-(4-fluoro-Phenyl)-pyridin-2-yl]-propionamide]"
,,15.8,,"COc1ccc(CN2C(=O)c3ccccc3C2CCS(=O)(=O)Nc2nccs2)cc1 (centres unmarked) [Compound 10, 2-[2-(4-Methoxy-benzyl)-3-oxo-2,3-dihydro-1H-isoindol-1-yl]-ethanesulfonic acid thiazol-2-ylamide]"
1900,300,64.1,,"O=C(CCC1c2c(F)cccc2C(=O)N1Cc1ccc(F)cc1)Nc1ccc(-c2ccccc2)cn1 (centres unmarked) [Compound 31, 3-[7-Fluoro-2-(4-fluoro-benzyl)-3-oxo-2,3-dihydro-1H-isoindol-1-yl]-N-(5-phenyl-pyridin-2-yl)-propionamide]"
3100,26.6,94.4,,"CCOC(=O)c1csc(NC(=O)CCC2c3c(F)ccc(F)c3C(=O)N2Cc2ccc(F)cc2)n1 (centres unmarked) [Compound 21, 2-{3-[4,7-Difluoro-2-(4-fluoro-benzyl)-3-oxo-2,3-dihydro-1H-isoindol-1-yl]-propionylamino}thiazole-4-carboxylic acid ethyl ester]"
240,0.88,272,,"O=C(CCC1c2c(F)cccc2C(=O)N1Cc1ccc(F)cc1)Nc1cnccn1 (centres unmarked) [Compound 13, 3-[7-Fluoro-2-(4-fluoro-benzyl)-3-oxo-2,3-dihydro-1H-isoindol-1-yl]-N-pyrazin-2-yl-propionamide]"
433,2.5,206,,"O=C(CCC1c2c(Cl)ccc(Cl)c2C(=O)N1Cc1ccc(F)cc1)Nc1ccccn1 (centres unmarked) [Compound 39, 3-[4,7-Dichloro-2-(4-fluoro-benzyl)-3-oxo-2,3-dihydro-1H-isoindol-1-yl]-N-pyridin-2-yl-propionamide]"
108,0.699,219,,"O=C(CCC1c2c(F)cccc2C(=O)N1Cc1ccc(F)cc1)Nc1ccc(F)cn1 (centres unmarked) [Compound 14, 3-[7-Fluoro-2-(4-fluoro-benzyl)-3-oxo-2,3-dihydro-1H-isoindol-1-yl]-N-(5-fluoro-pyridin-2-yl)-propionamide]"
219,1.2,,133 @ 5 μM %,"O=C(CCC1c2c(F)cccc2C(=O)N1Cc1ccc(F)cc1)Nc1ccc(C(=O)OCc2ccccc2)cn1 (centres unmarked) [Compound 46, 6-{3-[7-Fluoro-2-(4-fluoro-benzyl)-3-oxo-2,3-dihydro-1H-isoindol-1-yl]-propionylamino}-nicotinic acid benzyl ester]"
21000,188,73.7,,"O=C(O)Cc1csc(NC(=O)CCC2c3c(F)ccc(F)c3C(=O)N2Cc2ccc(F)cc2)n1 (centres unmarked) [Compound 22, (2-{3-[4,7-Difluoro-2-(4-fluoro-benzyl)-3-oxo-2,3-dihydro-1H-isoindol-1-yl]-propionylamino}-thiazol-4-yl)-acetic acid]"
67,0.128,229,,"O=C(CCC1c2c(F)cccc2C(=O)N1Cc1ccc(F)cc1)Nc1ccc(C(=O)O)cn1 (centres unmarked) [Compound 11, 6-{3-[7-Fluoro-2-(4-fluoro-benzyl)-3-oxo-2,3-dihydro-1H-isoindol-1-yl]-propionylamino}-nicotinic acid]"
